Results taken from patent publication US20230072421A1, “TARGETED RADIOPHARMACEUTICALS FOR THE DIAGNOSIS AND TREATMENT OF PROSTATE CANCER” (Bayer AS, priority 2019, published 2023).

Legend:
VCaP cells = test: Cell proliferation assay (CellTiter-Glo, 5-day exposure), VCaP; type: cell-based; details: 4000 cells/well, Th-227 labelled at 375 kBq/nmol, mean of 1 to 6 experiments
How it was run: (§1)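 Prostate cancer cells (VCaP 4000/well; 22Rv1, C4-2, LNCaP 1000/well), Th-227-labelled PSMA ligands, 5-day exposure; viability by CTG at start and end.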

LNCaP cells = test: Cell proliferation assay (CellTiter-Glo, 5-day exposure), LNCaP; type: cell-based, human; details: LNCaP, 1000 cells/well; Th-227 labelled at 375 kBq/nmol; 5-day exposure; mean of 1 to 6 experiments
Experimental: Inhibition of cell proliferation of Thorium-227 labeled PMSA SMOL ligands was tested different prostate cancer cell lines, namely 22Rv1, VCaP, C4-2 (all from ATCC, Manassas, Va., USA) and LNCaP (DMSZ, Braunschweig). Cells were seeded using the following conditions in 384 well plates (Corning) in 30 μl of growth media at 4000 cells/well for VCaP cells and 1000 cells/well for 22Rv1, C4-2 and LNCaP cells.
Cells were cultivated an incubator at 37° C. and 5% C02 over night. On the following days cells were treated in triplicates with serial dilutions of PSMA-SMOLs labeled with Th-227 at a specific activity of 375 kBq/nmol (RCP>70% as assessed by iTLC analysis; compounds where RCP was between 50-70% in individual experiments are marked with an * in the table) using a D300e Digital Dispenser (Tecan). In sister plates cell viability at treatment start (d=0) was determined using CellTiter-Glo® assay (CTG, Promega, Madison, Wis., USA), by adding 30 μl per well CTG solution, incubation for 10 min and reading of Luminescence in a PheraStarFSX instrument (BMG Labtech). After a 5-day exposure in the presenced of test compounds, cell viability of treated or untreated control cells was determined again using CellTiter-Glo® assay (Promega, Madison, Wis., USA). […] The DRC software is a Biobook Spreadsheet that was developed by Bayer AG and Bayer Business Services on the IDBS E-Workbook Suite platform (IDBS: ID Business Solutions Ltd., Guildford, UK).

C4-2 cells = test: Cell proliferation assay (CellTiter-Glo, 5-day exposure), C4-2; type: cell-based; details: C4-2, 1000 cells/well, Th-227 labelled at 375 kBq/nmol, mean of 1 to 6 experiments
How it was run: as §1

22Rv1 cells = test: Cell proliferation assay (CellTiter-Glo, 5-day exposure), 22Rv1; type: cell-based; details: 22Rv1, 1000 cells/well, Th-227 labelled at 375 kBq/nmol, mean of 1 to 6 experiments
How it was run: as §1

[1] = Biodistribution study in LNCaP tumor-bearing mice (Th227 counted in organs); type: in vivo, SCID mice; details: 1500 kBq/kg
How it was run: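 Th227 in excised, weighed organs was counted with a Germanium detector at predetermined time points (n=3 mice each). This followed one i.v. injection of radiolabelled compound into testosterone-supplemented SCID mice carrying LNCaP xenografts in Matrigel, dosed once tumors reached ~50 mm^2.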

[2] = test system: LNCaP human prostate cancer cells; test: LNCaP xenograft efficacy study (T/C tumor area); type: in vivo, SCID mice
How it was run: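 SCID mice with testosterone pellet bearing s.c. flank LNCaP xenografts (5×10^6 cells in Matrigel) were treated i.v. with a defined radioactive dose once tumors reached 35-50 mm^2 (n=10/group). Tumor area (caliper, longest diameter × perpendicular) measured 2-3× weekly; T/C ratio calculated from tumor areas when vehicle group closed.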

## Cc1cc2c(c(=O)n1CC(=O)O)[O][227Th]13[O]c4c(cc(C)n(CC(=O)O)c4=O)C(=O)NCCN(CCCN(CCNC(=O)c4cc(C)n(CC(=O)O)c(=O)c4[O]1)CCNC(=O)c1cc(C)n(CC(=O)NCc4ccc(C(=O)N[C@@H](Cc5ccc6ccccc6c5)C(=O)NCCCC[C@H](NC(=O)N[C@H](CCC(=O)O)C(=O)O)C(=O)O)nc4)c(=O)c1[O]3)CCNC2=O [Example 25-C-D-227Th]
VCaP cells
  Proliferation assay on cancer cell lines by TTCs Default Pivot #3 IC50 [kBq/mL] VCap 4000cells 375kBq/nmol (mean): 2.26 kBq/mL
LNCaP cells
  Proliferation assay on cancer cell lines by TTCs Default Pivot #3 IC50 [kBq/mL] LnCap 1000cells 375kBq/nmol (mean): 0.49 kBq/mL
C4-2 cells
  Proliferation assay on cancer cell lines by TTCs Default Pivot #3 IC50 [kBq/mL] C4-2 1000cells 375kBq/nmol (mean): 2.95 kBq/mL

## COc1c(C[C@@H](NC(=O)c2ccc(CNC(=O)CN3CCN(CC(=O)[O-])CCN(CC(=O)[O-])CCN(CC(=O)[O-])CC3)cn2)C(=O)NCCCC[C@H](NC(=O)N[C@@H](CCC(=O)O)C(=O)O)C(=O)O)ccc2ccccc12.[227Th+4] [Example 33a-B-227Th, (3R,10S,14S)-3-[(1-methoxynaphthalen-2-yl)methyl]-1,4,12-trioxo-1-{5-[(2-{4,7,10-tris[(carboxy-kappaO)methyl]-1,4,7,10-tetraazacyclododecan-1-yl-kappa^2N^1,N^4}acetamido)methyl]pyridin-2-yl}-2,5,11,13-tetraazahexadecane-10,14,16-tricarboxylato(3−)(^227Th)Thorium]
VCaP cells
  Proliferation assay on cancer cell lines by TTCs Default Pivot #3 IC50 [kBq/mL] VCap 4000cells 375kBq/nmol (mean): 1.22 kBq/mL
LNCaP cells
  Proliferation assay on cancer cell lines by TTCs Default Pivot #3 IC50 [kBq/mL] LnCap 1000cells 375kBq/nmol (mean): 0.20 kBq/mL
C4-2 cells
  Proliferation assay on cancer cell lines by TTCs Default Pivot #3 IC50 [kBq/mL] C4-2 1000cells 375kBq/nmol (mean): 4.63 kBq/mL

## O=C([O-])CN1CCN(CC(=O)[O-])CCN(CC(=O)NCc2ccc(C(=O)N[C@@H](Cc3ccc4ccccc4n3)C(=O)NCCCC[C@H](NC(=O)N[C@@H](CCC(=O)O)C(=O)O)C(=O)O)nc2)CCN(CC(=O)[O-])CC1.[227Th+4] [Example 34-B-227Th, {N^6-[3-(quinolin-2-yl)-N-{5-[(2-{4,7,10-tris[(carboxy-kappaO)methyl]-1,4,7,10-tetraazacyclododecan-1-yl-kappa^4N^1,N^4,N^7,N^10}acetamido)methyl]pyridine-2-carbonyl}-L-alanyl]-N^2-{[(1S)-1,3-dicarboxypropyl]carbamoyl}-L-lysinato(4−)}(^227Th)Thorate(1−)]
22Rv1 cells
  Proliferation assay on cancer cell lines by TTCs Default Pivot #3 IC50 [kBq/mL] 22Rv1 1000cells 375kBq/nmol (mean): 0.76 kBq/mL
[1]; 0.25 h
  Th-227 in Blood: 1.78% ID Th-227/g organ
  Th-227 in Liver: 1.69% ID Th-227/g organ
  Th-227 in Spleen: 17.32% ID Th-227/g organ
  Th-227 in Tumor: 6.33% ID Th-227/g organ
  Th-227 in bone: 1.66% ID Th-227/g organ
  Th-227 in brain: 0.12% ID Th-227/g organ
  Th-227 in kidney: 62.53% ID Th-227/g organ
  Th-227 in large intestine: 0.67% ID Th-227/g organ
  Th-227 in lung: 4.04% ID Th-227/g organ
  Th-227 in muscle: 1.02% ID Th-227/g organ
  Th-227 in prostate: 0.00% ID Th-227/g organ
  Th-227 in salivary glands: 3.14% ID Th-227/g organ
  Th-227 in small intestine: 1.36% ID Th-227/g organ
[1]
  Accumulation in the tumor (in words): good and stable accumulation in the tumor
[1]; 1 hr
  Th-227 in Blood: 0.58% ID Th-227/g organ
  Th-227 in Liver: 0.88% ID Th-227/g organ
  Th-227 in Spleen: 19.69% ID Th-227/g organ
  Th-227 in Tumor: 9.15% ID Th-227/g organ
  Th-227 in bone: 1.27% ID Th-227/g organ
  Th-227 in brain: 0.02% ID Th-227/g organ
  Th-227 in kidney: 69.22% ID Th-227/g organ
  Th-227 in large intestine: 0.45% ID Th-227/g organ
  Th-227 in lung: 2.79% ID Th-227/g organ
  Th-227 in muscle: 0.54% ID Th-227/g organ
  Th-227 in prostate: 0.62% ID Th-227/g organ
  Th-227 in salivary glands: 1.75% ID Th-227/g organ
  Th-227 in small intestine: 0.64% ID Th-227/g organ
[1]; 4 hr
  Th-227 in Blood: 0.07% ID Th-227/g organ
  Th-227 in Liver: 0.55% ID Th-227/g organ
  Th-227 in Spleen: 11.57% ID Th-227/g organ
  Th-227 in Tumor: 7.00% ID Th-227/g organ
  Th-227 in bone: 1.44% ID Th-227/g organ
  Th-227 in brain: 0.00% ID Th-227/g organ
  Th-227 in kidney: 65.52% ID Th-227/g organ
  Th-227 in large intestine: 0.79% ID Th-227/g organ
  Th-227 in lung: 1.48% ID Th-227/g organ
  Th-227 in muscle: 0.41% ID Th-227/g organ
  Th-227 in prostate: 4.08% ID Th-227/g organ
  Th-227 in salivary glands: 1.05% ID Th-227/g organ
  Th-227 in small intestine: 1.13% ID Th-227/g organ
[1]; 24 h
  Th-227 in Blood: 0.01% ID Th-227/g organ
  Th-227 in Liver: 0.23% ID Th-227/g organ
  Th-227 in Spleen: 1.21% ID Th-227/g organ
  Th-227 in Tumor: 10.56% ID Th-227/g organ
  Th-227 in bone: 1.21% ID Th-227/g organ
  Th-227 in brain: 0.00% ID Th-227/g organ
  Th-227 in kidney: 21.02% ID Th-227/g organ
  Th-227 in large intestine: 0.10% ID Th-227/g organ
  Th-227 in lung: 0.27% ID Th-227/g organ
  Th-227 in muscle: 0.00% ID Th-227/g organ
  Th-227 in prostate: 0.00% ID Th-227/g organ
  Th-227 in salivary glands: 0.11% ID Th-227/g organ
  Th-227 in small intestine: 0.08% ID Th-227/g organ
[1]; 96 h
  Th-227 in Blood: 0.00% ID Th-227/g organ
  Th-227 in Liver: 0.19% ID Th-227/g organ
  Th-227 in Spleen: 0.43% ID Th-227/g organ
  Th-227 in Tumor: 9.97% ID Th-227/g organ
  Th-227 in bone: 1.08% ID Th-227/g organ
  Th-227 in brain: 0.00% ID Th-227/g organ
  Th-227 in kidney: 9.71% ID Th-227/g organ
  Th-227 in large intestine: 1.44% ID Th-227/g organ
  Th-227 in lung: 0.13% ID Th-227/g organ
  Th-227 in muscle: 0.00% ID Th-227/g organ
  Th-227 in prostate: 0.00% ID Th-227/g organ
  Th-227 in salivary glands: 0.10% ID Th-227/g organ
  Th-227 in small intestine: 0.25% ID Th-227/g organ
VCaP cells
  Proliferation assay on cancer cell lines by TTCs Default Pivot #3 IC50 [kBq/mL] VCap 4000cells 375kBq/nmol (mean): 1.75 kBq/mL
[2]; Example III, day 64 after start of therapy, single treatment 1.5 MBq/kg
  T/Carea: 0.23
[2]; Example IV, day 36 after start of therapy, once 1 MBq/kg
  T/Carea: 0.66
C4-2 cells
  Proliferation assay on cancer cell lines by TTCs Default Pivot #3 IC50 [kBq/mL] C4-2 1000cells 375kBq/nmol (mean): 0.63 kBq/mL
